The source of these data is patent publication US5756423A, “Method of controlling plants by inhibition of farnesyl pyrophosphate synthase” (Zeneca Limited, priority 1997, dated 1998).

Assay [1] has as its system green foxtail (Setaria viridis) (SETVI). Kind of assay: post-emergent herbicidal test, green foxtail. The format is in vivo. The following applies: Setaria viridis, post-emergence, post-emergent, 1.0 kg/ha (*), 17-21 days after application; read-out: SETVI percent control. The procedure, abridged: (§1)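 Greenhouse seedlings (14 h photoperiod, 29 °C day, 21 °C night) received compound at 1 or 4 kg/ha with Tween 20 surfactant. Weed control, as % of total injury versus untreated plants, was recorded at 17–21 days.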

Assay [2] concerns velvetleaf (Abutilon theophrasti) (ABUTH). Put plainly: post-emergent herbicidal test, velvetleaf. The settings on record: Abutilon theophrasti, post-emergence, post-emergent, 1.0 kg/ha (*), 17-21 days after application; read-out: ABUTH percent control. Type of assay: in vivo. In outline:
as §1

In assay [3] the test system is yellow nutsedge (Cyperus esculentus) (CYPES). Put plainly: post-emergent herbicidal test, yellow nutsedge. The format is in vivo. The following applies: Cyperus, post-emergence, post-emergent, 1.0 kg/ha (*), 17-21 days after application; read-out: CYPES percent control. The procedure, abridged: as §1
Assay [4] concerns farnesyl pyrophosphate synthase in daffodil chromoplasts. Kind of assay: inhibition of farnesyl pyrophosphate synthase in daffodil chromoplasts (14C-isopentenyl pyrophosphate incorporation). Type of assay: biochemical, Narcissus pseudonarcissus. The following applies: unit inferred, IC50 values in nM, read-out: IC50. The procedure, abridged: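 Daffodil chromoplasts in pH 7.7 sucrose/MgCl2/HEPES buffer with cysteine, NaF and BSA, started with ~3 micromolar 14C-isopentenyl pyrophosphate, 30 min at 30° C. Butanol-extractable radioactivity counted by scintillation; % residual activity calculated against zero-time and end-point no-inhibitor controls.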

Assay [5] has as its system barnyard grass (Enchinochloa crusgalli) (ECHCG). Put plainly: post-emergent herbicidal test, barnyard grass. Type of assay: in vivo. The settings on record: Echinochloa crus-galli, post-emergence, post-emergent, 1.0 kg/ha (*), 17-21 days after application; read-out: ECHCG percent control. In outline: as §1
The test system of assay [6] is wild mustard (Brassica kaber), also known as Sinapis arvensis (SINAR). Kind of assay: post-emergent herbicidal test, wild mustard. Type of assay: in vivo. The settings on record: Brassica, post-emergence, post-emergent, 1.0 kg/ha (*), 17-21 days after application; read-out: SINAR percent control. The procedure, abridged:
as §1

Assay [7] relates to wild oat (Avena fatua) (AVEFA). Kind of assay: post-emergent herbicidal test, wild oat. Type of assay: in vivo. The following applies: Avena fatua, post-emergence; post-emergent, 1.0 kg/ha (*), 17-21 days after application; read-out: AVEFA percent control. In outline:
as §1

For assay [8], the system named is morningglory (Ipomoea spp.) (IPOSS). Kind of assay: post-emergent herbicidal test, morningglory. The format is in vivo. The following applies: Ipomoea, post-emergence, post-emergent, 1.0 kg/ha (*), 17-21 days after application; read-out: IPOSS percent control. The procedure, abridged: as §1

Read-outs that look alike come from different tables or passages of the source.

One may read the IC50 as the concentration that gives 50% inhibition. Consider `CC[C@H](C)NCC(P(=O)(O)O)P(=O)(O)O` [Compound 56], for which the pest or weed control at 1000 g/ha is 100% in assay [1]; 95% in assay [2]; 60% in assay [3]; 100% in assay [5]; 100% in assay [6]; 100% in assay [7]. The pest or weed control at 1000 g/ha in assay [8] is 98%. Besides, the half-maximal inhibitory concentration (IC50) in assay [4] (Table I) and in assay [4] (Table II) was 32 nM in each case.
Consider `CC1CCCN(CC(P(=O)(O)O)P(=O)(O)O)C1C` (centres unmarked) [Compound 57], for which the pest or weed control at 1000 g/ha was determined as 100% in assay [1]; 80% in assay [2]; 15% in assay [3]; 100% in assay [5]; 100% in assay [6]; 100% in assay [7]. Moreover, the pest or weed control at 1000 g/ha in assay [8] was determined as 90%. Also, the IC50 in assay [4] (Table I) and in assay [4] (Table II) was 96 nM in each case.
`Cc1cn(CC(P(=O)(O)O)P(=O)(O)O)cn1` [Compound 58]: the pest or weed control at 1000 g/ha was 100% in assay [1]; 98% in assay [2]; 10% in assay [3]; 98% in assay [5]; 100% in assay [6]; 100% in assay [7]. For the same molecule, in assay [8], the pest or weed control at 1000 g/ha was found to be 90%. The concentration for half-maximal inhibition (IC50) in assay [4] (Table I) and in assay [4] (Table II) was 107 nM throughout.
As to `CCCCCCN(CCC)CC(P(=O)(O)O)P(=O)(O)O` [Compound 59], the pest or weed control at 1000 g/ha was 95% in assay [1]; 30% in assay [2]; 5% in assay [3]; 90% in assay [5]; 90% in assay [6]; 85% in assay [7]. Besides, the pest or weed control at 1000 g/ha in assay [8] is 20%. Further, the IC50 in assay [4] (Table I) and in assay [4] (Table II) was 135 nM throughout.
For the molecule `Cc1cnn(CC(P(=O)(O)O)P(=O)(O)O)c1` [Compound 60], the pest or weed control at 1000 g/ha in assay [1] is 30%; in assay [2], 10%; in assay [3], 0%; in assay [5] it was 30%; in assay [6] it was 20%; in assay [7], 10%. The pest or weed control at 1000 g/ha in assay [8] amounted to 5%. In addition, the half-maximal inhibitory concentration (IC50) in assay [4] (Table I) and in assay [4] (Table II) was 1410 nM in each case.
As for `CCCN(CCC(C)C)CC(P(=O)(O)O)P(=O)(O)O` [Compound 61], the pest or weed control at 1000 g/ha in assay [1] worked out at 90%; in assay [2], 70%; in assay [3], 10%; in assay [5], 100%; in assay [6], 90%; in assay [7] it was 100%. The pest or weed control at 1000 g/ha in assay [8] is 30%. For the same molecule, the 50% inhibitory concentration (IC50) in assay [4] (Table I) and in assay [4] (Table II) was 1000 nM throughout.
Regarding `CCCCCN(CCC)CC(P(=O)(O)O)P(=O)(O)O` [Compound 62], the pest or weed control at 1000 g/ha was 95% in assay [1]; 15% in assay [2]; 10% in assay [3]; 85% in assay [5]; 85% in assay [6]; 100% in assay [7]. For the same molecule, in assay [8], the pest or weed control at 1000 g/ha is 30%. Moreover, the concentration for half-maximal inhibition (IC50) in assay [4] (Table I) and in assay [4] (Table II) was 186 nM in each case.
In the case of `O=P(O)(O)C(CN1C=NCCC1)P(=O)(O)O` [Compound 65], the pest or weed control at 1000 g/ha in assay [1] is 100%; in assay [2] it was 100%; in assay [3], 5%; in assay [5], 100%; in assay [6], 100%; in assay [7], 95%. In addition, the pest or weed control at 1000 g/ha in assay [8] is 100%. The half-maximal inhibitory concentration (IC50) in assay [4] (Table I) and in assay [4] (Table II) was 50 nM in each case.
For the molecule `CC(O)CNCC(P(=O)(O)O)P(=O)(O)O` (centres unmarked) [Compound 66], the pest or weed control at 1000 g/ha in assay [1] worked out at 98%; in assay [2], 90%; in assay [3] it was 60%; in assay [5] it was 95%; in assay [6], 100%; in assay [7], 90%. Besides, the pest or weed control at 1000 g/ha in assay [8] was 75%. In assay [4] (Table II), the IC50 is 58 nM.
